Legend:
α5β3γ2 GABAA receptors = target: T1, α5β3γ2 GABAA receptors (Homo sapiens, UniProt P18507+P31644); assay: Binding activity of test compounds on GABAAR ([3H]Ro15-1788 inhibition, Ltk cell membranes)
T1 construct: membranes
Method: The binding was performed on Ltk cells stably expressing GABAA receptors: α1β1γ2, α2β3γ2, α3β3γ2 and α5β3γ2 (provided by Merck Co., NJ, USA). Cells were seeded in 100 mm culture plates in DMEM/F12 medium containing 10% serum and antibiotics in 5% C02 and allowed to grow for 1-2 days. GABAAR expression was then induced by dexamethasone as follows: 0.5 μM for 1 day for α5 containing and 2 μM for 3 days for α1, α2 and α3 containing GABAARs. After induction, cells were collected by scraping into Dulbecco's Phosphate buffered saline (DPBS, pH 7.4, Invitrogen, Carlsbad, Calif., USA) and centrifuged at 150×g for 10 min. The pellet was washed twice by re-suspension and centrifugation. The cell pellets from at least 5 different preps were combined, suspended in the binding assay buffer (50 mM KH2PO4; 1 mM EDTA; 0.2 M KCl, pH 7.4) and membranes prepared by sonication (3-5 times, 30 sec) using Branson Sonifier 150 (G.Heinmann, Germany). Protein content was determined using BCA assay (Bio-Rad Labs, Reinach, Switzerland) with Bovine Serum Albumin (Sigma Aldrich, St. Louis, Mo., USA) as the standard. Aliquots were prepared and stored at −20° C. for further use in binding assays.
Saturation binding curves were obtained by incubating membranes with increasing concentrations (0.01-8 nM) of [^3H]Ro15-1788 (Flumazepil, 75-85 Ci/mmol, PerkinElmer, MA, USA), with nonspecific binding measured in the presence of 10 μM diazepam.
All binding assays were performed for 1 h at 4° C. in assay buffer. The total assay volume was 0.5 ml containing 0.2 mg/ml protein for α5 and 0.4 mg/ml for α1, α2, and α3 containing GABAAR membranes. Incubations were terminated by filtration through GF/B filters using a 24-Cell Harvestor (Brandel, Gaithersburg, Md., USA) followed by 3 washes with ice-cold assay buffer. Filters were transferred to scintillation vials, 5 ml scintillation liquid added, vortex-mixed and kept in dark. Next day, radioactivity was obtained using a scintillation counter (Beckman Coulter, Brea, Calif., USA). All assays were performed in triplicate.
Saturation and inhibition curves were obtained using GraphPad Prism software (GraphPad Software, Inc., CA, USA).

GABAA receptors (α5β2γ2) = target: T2, GABAA receptors (α5β2γ2) (Homo sapiens, UniProt P18507+P31644); assay: Positive allosteric modulator activity, potentiation of EC20 GABA current in oocytes; assay type: cell-based; settings: read-out: GABA α5 functional potentiation
T2 construct: expressed in transfected cells; host or cells: oocytes injected with a mix of alpha, beta and gamma cDNA (1:1:10 by weight)
Method: On day 1, 1 ng/32 nL of GABAA […] cDNA was injected into one oocyte. Test starts on day 2. The cDNA injected to the oocytes was a mix of alpha, beta and gamma, their ratio is 1:1:10 (by weight) and the total weight of the mixed 3 subunits to be injected in one oocyte was 1 ng in 32 nl volume. The injected oocytes can also be tested on day 3. In such case, the cDNA amount injected to the oocytes should be reduced by 20%.
1). 8 oocytes were placed in 8 chambers of OpusXpress and superfused with Modified Barth's Saline (MBS) at 3 mL/min. Glass electrodes back-filled with 3M KCl (0.5-3 megaohms) were used.
3). […] Oocytes were washed with MBS for 5-10 min.
2). […] Divide Itest by IGABA to obtain potentiation (%).
3). Discard all tested oocytes, new oocytes were used and the above steps 1) and 2) were repeated to test second concentration of the same compound. Each oocyte was used for only one concentration test for a single test compound. The steps were repeated for other test compounds.

T2 sequence (P31644 32-462): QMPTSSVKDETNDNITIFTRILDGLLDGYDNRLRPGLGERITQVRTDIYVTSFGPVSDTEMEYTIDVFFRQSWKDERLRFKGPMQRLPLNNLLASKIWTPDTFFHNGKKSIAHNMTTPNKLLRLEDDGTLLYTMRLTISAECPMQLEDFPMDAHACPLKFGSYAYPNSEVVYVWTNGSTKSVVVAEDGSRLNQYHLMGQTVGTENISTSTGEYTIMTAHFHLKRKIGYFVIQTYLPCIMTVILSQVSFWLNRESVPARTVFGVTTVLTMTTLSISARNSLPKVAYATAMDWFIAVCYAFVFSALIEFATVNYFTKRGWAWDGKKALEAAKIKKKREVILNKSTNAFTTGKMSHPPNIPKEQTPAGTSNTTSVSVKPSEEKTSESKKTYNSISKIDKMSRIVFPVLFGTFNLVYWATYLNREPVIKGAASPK
T2 sequence (P47870 25-512 partner limits assumed): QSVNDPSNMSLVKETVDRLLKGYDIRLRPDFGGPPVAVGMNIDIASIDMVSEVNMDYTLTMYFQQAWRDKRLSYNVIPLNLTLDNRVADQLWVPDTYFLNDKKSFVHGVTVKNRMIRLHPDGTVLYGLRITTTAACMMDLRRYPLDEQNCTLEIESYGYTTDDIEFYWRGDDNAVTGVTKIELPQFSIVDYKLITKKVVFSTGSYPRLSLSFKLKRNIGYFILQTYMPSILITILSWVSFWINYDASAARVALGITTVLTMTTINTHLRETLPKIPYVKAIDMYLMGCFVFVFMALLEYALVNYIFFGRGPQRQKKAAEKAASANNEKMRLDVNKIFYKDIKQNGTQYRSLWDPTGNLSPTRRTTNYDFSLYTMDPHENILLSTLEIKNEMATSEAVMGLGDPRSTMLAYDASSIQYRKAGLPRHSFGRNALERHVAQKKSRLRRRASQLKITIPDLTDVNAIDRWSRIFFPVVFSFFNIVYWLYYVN
T2 sequence (P18507 40-475): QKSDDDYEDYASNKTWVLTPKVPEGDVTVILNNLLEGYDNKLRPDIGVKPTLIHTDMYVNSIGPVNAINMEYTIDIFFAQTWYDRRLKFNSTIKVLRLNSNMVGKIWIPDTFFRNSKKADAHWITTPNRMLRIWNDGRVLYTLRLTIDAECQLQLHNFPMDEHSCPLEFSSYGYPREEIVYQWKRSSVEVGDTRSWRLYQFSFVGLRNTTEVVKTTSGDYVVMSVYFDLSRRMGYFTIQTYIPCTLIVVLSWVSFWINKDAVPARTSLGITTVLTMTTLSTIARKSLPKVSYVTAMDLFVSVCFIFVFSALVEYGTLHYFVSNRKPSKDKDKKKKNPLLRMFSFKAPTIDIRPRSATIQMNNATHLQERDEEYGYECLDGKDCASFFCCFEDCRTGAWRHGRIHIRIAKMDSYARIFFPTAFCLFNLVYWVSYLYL
T1 sequence (P31644 32-462): as the sequence (P31644 32-462) above
T1 sequence (P28472 26-473 partner): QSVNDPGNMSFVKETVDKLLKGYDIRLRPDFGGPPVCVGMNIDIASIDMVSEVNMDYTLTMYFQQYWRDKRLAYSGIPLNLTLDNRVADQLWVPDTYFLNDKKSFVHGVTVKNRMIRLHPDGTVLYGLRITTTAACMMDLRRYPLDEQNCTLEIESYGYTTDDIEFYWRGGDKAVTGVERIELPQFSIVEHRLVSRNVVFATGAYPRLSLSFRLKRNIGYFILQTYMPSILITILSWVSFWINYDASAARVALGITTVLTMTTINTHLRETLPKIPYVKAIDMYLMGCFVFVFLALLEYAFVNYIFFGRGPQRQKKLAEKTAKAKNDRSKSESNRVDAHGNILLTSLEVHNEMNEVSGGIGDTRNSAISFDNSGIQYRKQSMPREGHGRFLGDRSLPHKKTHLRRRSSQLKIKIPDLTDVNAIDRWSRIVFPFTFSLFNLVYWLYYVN
T1 sequence (P18507 40-475): as the sequence (P18507 40-475) above

## COc1ccc2c(c1)-c1nnc(COc3ccccc3)n1Cc1c(-c3noc(C)n3)ncn1-2 [Compound 162]
α5β3γ2 GABAA receptors
  Ki: < 99 nM
GABAA receptors (α5β2γ2)
  activation at 0.1 µM: 20 to 49%

## COc1ccc2c(c1)-c1nnc(COCc3ccccc3)n1Cc1c(C#N)ncn1-2 [Compound 166]
α5β3γ2 GABAA receptors
  Ki: < 99 nM

## CCOC(=O)c1ncn2c1Cc1c(COc3ccc(F)cc3)nnn1-c1cc(OC)ccc1-2 [Compound 10]
α5β3γ2 GABAA receptors
  Ki: < 99 nM

## CCOC(=O)c1ncn2c1Cn1c(Oc3ccccc3)nnc1-c1cc(OC)ccc1-2 [Compound 104]
α5β3γ2 GABAA receptors
  Ki: < 99 nM

## COc1ccc2c(c1)-n1nnc(C)c1Cc1c(-c3nc(C)no3)ncn1-2 [Compound 167]
α5β3γ2 GABAA receptors
  Ki: < 99 nM

## Cc1noc(-c2ncn3c2Cc2c(C)nnn2-c2ccccc2-3)n1 [Compound 126]
α5β3γ2 GABAA receptors
  Ki: < 99 nM
GABAA receptors (α5β2γ2)
  activation at 0.1 µM: 20 to 49%

## CCOC(=O)c1ncn2c1Cc1c(C)nnn1-c1cc(OC)ccc1-2 [Compound 1]
α5β3γ2 GABAA receptors
  Ki: < 99 nM
GABAA receptors (α5β2γ2)
  activation at 0.1 µM: 20 to 49%

## COc1ccc2c(c1)-c1nnc(COCc3ccccc3)n1Cc1c(-c3noc(C)n3)ncn1-2 [Compound 165]
α5β3γ2 GABAA receptors
  Ki: < 99 nM

## COc1ccc2c(c1)-c1nnc(COc3cccc4ccccc34)n1Cc1c(-c3noc(C(C)C)n3)ncn1-2 [Compound 177]
α5β3γ2 GABAA receptors
  Ki: < 99 nM
GABAA receptors (α5β2γ2)
  activation at 0.1 µM: > 50%

## COc1ccc2c(c1)-c1nnc(COc3ccccc3)n1Cc1c(-c3nc(C)no3)ncn1-2 [Compound 118]
α5β3γ2 GABAA receptors
  Ki: < 99 nM
GABAA receptors (α5β2γ2)
  activation at 0.1 µM: 20 to 49%

## CCOC(=O)c1ncn2c1Cc1c(Cc3cccc(Cl)c3)nnn1-c1cc(OC)ccc1-2 [Compound 52]
α5β3γ2 GABAA receptors
  Ki: < 99 nM

## COc1ccc2c(c1)-c1nnc(COc3ccc(F)cc3)n1Cc1c(-c3noc(C)n3)ncn1-2 [Compound 163]
α5β3γ2 GABAA receptors
  Ki: < 99 nM
GABAA receptors (α5β2γ2)
  activation at 0.1 µM: 20 to 49%

## COCc1nnc2n1Cc1c(-c3noc(C(C)C)n3)ncn1-c1ccc(OC)cc1-2 [Compound 169]
α5β3γ2 GABAA receptors
  Ki: < 99 nM

## Cc1nnn2c1Cc1c(-c3noc(C(C)C)n3)ncn1-c1ccc(F)cc1-2 [Compound 149]
α5β3γ2 GABAA receptors
  Ki: < 99 nM
GABAA receptors (α5β2γ2)
  activation at 0.1 µM: > 50%

## CCOC(=O)c1ncn2c1Cn1c(COc3ccccc3)nnc1-c1cc(OC)ccc1-2 [Compound 55]
α5β3γ2 GABAA receptors
  Ki: < 99 nM
GABAA receptors (α5β2γ2)
  activation at 0.1 µM: 20 to 49%

## COc1ccc2c(c1)-c1nnc(COc3ccccc3)n1Cc1c(C#N)ncn1-2 [Compound 122]
α5β3γ2 GABAA receptors
  Ki: < 99 nM

## COCc1nnc2n1Cc1c(-c3nc(C(C)C)no3)ncn1-c1ccc(OC)cc1-2 [Compound 130]
α5β3γ2 GABAA receptors
  Ki: < 99 nM
GABAA receptors (α5β2γ2)
  activation at 0.1 µM: 20 to 49%

## CCOC(=O)c1ncn2c1Cc1c(Cc3ccccc3)nnn1-c1cc(F)ccc1-2 [Compound 6]
α5β3γ2 GABAA receptors
  Ki: < 99 nM

## CCOC(=O)c1ncn2c1Cc1c(Cc3ccc(Cl)cc3)nnn1-c1ccccc1-2 [Compound 47]
α5β3γ2 GABAA receptors
  Ki: < 99 nM

## COc1ccc2c(c1)-c1nnc(COc3ccccc3F)n1Cc1c(-c3noc(C(C)C)n3)ncn1-2 [Compound 174]
α5β3γ2 GABAA receptors
  Ki: < 99 nM
GABAA receptors (α5β2γ2)
  activation at 0.1 µM: > 50%

## COc1ccc2c(c1)-c1nnc(COc3cccnc3)n1Cc1c(-c3noc(C(C)C)n3)ncn1-2 [Compound 176]
α5β3γ2 GABAA receptors
  Ki: < 99 nM
GABAA receptors (α5β2γ2)
  activation at 0.1 µM: > 50%

## CC(C)c1nc(-c2ncn3c2Cn2c(COc4ccccc4)nnc2-c2cc(F)ccc2-3)no1 [Compound 147]
α5β3γ2 GABAA receptors
  Ki: < 99 nM
GABAA receptors (α5β2γ2)
  activation at 0.1 µM: 20 to 49%

## CCOC(=O)c1ncn2c1Cn1c(COc3ccc(F)cc3)nnc1-c1cc(OC)ccc1-2 [Compound 56]
α5β3γ2 GABAA receptors
  Ki: < 99 nM

## Fc1ccc2c(c1)-c1nnc(COc3ccccc3)n1Cc1c(-c3noc(C(F)(F)F)n3)ncn1-2 [Compound 159]
α5β3γ2 GABAA receptors
  Ki: < 99 nM

## Cc1nnn2c1Cc1c(-c3noc(C(F)(F)F)n3)ncn1-c1ccc(F)cc1-2 [Compound 150]
α5β3γ2 GABAA receptors
  Ki: < 99 nM

## CCOC(=O)c1ncn2c1Cc1c(Cc3cccnc3)nnn1-c1cc(C)ccc1-2 [Compound 111]
α5β3γ2 GABAA receptors
  Ki: < 99 nM
GABAA receptors (α5β2γ2)
  activation at 0.1 µM: 20 to 49%

## CC(C)OC(=O)c1ncn2c1Cn1c(COc3ccccc3)nnc1-c1cc(F)ccc1-2 [Compound 156]
α5β3γ2 GABAA receptors
  Ki: < 99 nM

## CCOC(=O)c1ncn2c1Cc1c(C)nnn1-c1ccccc1-2 [Compound 3]
α5β3γ2 GABAA receptors
  Ki: < 99 nM

## N#Cc1ncn2c1Cn1c(COc3ccccc3)nnc1-c1cc(F)ccc1-2 [Compound 157]
α5β3γ2 GABAA receptors
  Ki: < 99 nM

## COc1ccc2c(c1)-c1nnc(COc3cccc(F)c3)n1Cc1c(-c3noc(C(C)C)n3)ncn1-2 [Compound 179]
α5β3γ2 GABAA receptors
  Ki: < 99 nM
GABAA receptors (α5β2γ2)
  activation at 0.1 µM: > 50%

## CCOC(=O)c1ncn2c1Cc1c(Cc3ccc(Cl)cc3)nnn1-c1cc(F)ccc1-2 [Compound 45]
α5β3γ2 GABAA receptors
  Ki: < 99 nM
GABAA receptors (α5β2γ2)
  activation at 0.1 µM: 20 to 49%

## C#Cc1ncn2c1Cc1c(C)nnn1-c1ccccc1-2 [Compound 161]
α5β3γ2 GABAA receptors
  Ki: < 99 nM

## CCOCc1nnc2n1Cc1c(-c3noc(C(C)C)n3)ncn1-c1ccc(OC)cc1-2 [Compound 173]
α5β3γ2 GABAA receptors
  Ki: < 99 nM
GABAA receptors (α5β2γ2)
  activation at 0.1 µM: > 50%

## COc1ccc2c(c1)-c1nnc(COc3ccccc3)n1Cc1c(-c3noc(C(C)C)n3)ncn1-2 [Compound 171]
α5β3γ2 GABAA receptors
  Ki: < 99 nM
GABAA receptors (α5β2γ2)
  activation at 0.1 µM: > 50%

## Cc1nnn2c1Cc1c(C(=O)OC(C)C)ncn1-c1ccc(F)cc1-2 [Compound 112]
α5β3γ2 GABAA receptors
  Ki: < 99 nM

## CCOC(=O)c1ncn2c1Cc1c(Cc3cccc(C#N)c3)nnn1-c1cc(OC)ccc1-2 [Compound 53]
α5β3γ2 GABAA receptors
  Ki: < 99 nM

## Cc1nnn2c1Cc1c(-c3noc(C(C)C)n3)ncn1-c1ccccc1-2 [Compound 133]
α5β3γ2 GABAA receptors
  Ki: < 99 nM

## COc1ccc2c(c1)-n1nnc(COc3cccc(F)c3)c1Cc1c(-c3noc(C)n3)ncn1-2 [Compound 168]
α5β3γ2 GABAA receptors
  Ki: < 99 nM

## CCOC(=O)c1ncn2c1Cc1c(CN3CCOCC3)nnn1-c1cc(OC)ccc1-2 [Compound 49]
α5β3γ2 GABAA receptors
  Ki: < 99 nM

## Cc1nnn2c1Cc1c(-c3ncon3)ncn1-c1ccc(F)cc1-2 [Compound 151]
α5β3γ2 GABAA receptors
  Ki: < 99 nM

## Cc1noc(-c2ncn3c2Cc2c(C)nnn2-c2cc(F)ccc2-3)n1 [Compound 110]
GABAA receptors (α5β2γ2)
  activation at 0.1 µM: 20 to 49%

## CCOC(=O)c1ncn2c1Cc1c(C)cnn1-c1cc(OC)ccc1-2 [Compound 7]
α5β3γ2 GABAA receptors
  Ki: < 99 nM

## CCOC(=O)c1ncn2c1Cc1c(Cc3ccccc3)nnn1-c1ccccc1-2 [Compound 5]
α5β3γ2 GABAA receptors
  Ki: < 99 nM

## CCOC(=O)c1ncn2c1Cn1c(Oc3cccc(OC)c3)nnc1-c1cc(OC)ccc1-2 [Compound 105]
α5β3γ2 GABAA receptors
  Ki: < 99 nM

## Cc1nnn2c1Cc1c(C(=O)OCC(C)(C)C)ncn1-c1ccc(F)cc1-2 [Compound 113]
GABAA receptors (α5β2γ2)
  activation at 0.1 µM: > 50%

## CCOC(=O)c1ncn2c1Cc1c(COc3ccc(C)cc3C)nnn1-c1cc(OC)ccc1-2 [Compound 12]
α5β3γ2 GABAA receptors
  Ki: < 99 nM

## CCOC(=O)c1ncn2c1Cn1c(COC)nnc1-c1cc(OC)ccc1-2 [Compound 103]
α5β3γ2 GABAA receptors
  Ki: < 99 nM

## COCc1nnc2n1Cc1c(-c3noc(C)n3)ncn1-c1ccc(OC)cc1-2 [Compound 164]
α5β3γ2 GABAA receptors
  Ki: < 99 nM

## COCc1nnc2n1Cc1c(Br)ncn1-c1ccc(OC)cc1-2 [Compound 129]
α5β3γ2 GABAA receptors
  Ki: < 99 nM

## CCOC(=O)c1ncn2c1Cc1c(CN(C)Cc3ccccc3)nnn1-c1cc(OC)ccc1-2 [Compound 51]
α5β3γ2 GABAA receptors
  Ki: < 99 nM

## CCOC(=O)c1ncn2c1Cn1c(Br)nnc1-c1cc(OC)ccc1-2 [Compound 106]
α5β3γ2 GABAA receptors
  Ki: < 99 nM

## CCOC(=O)c1ncn2c1Cc1c(COc3ccccc3)nnn1-c1cc(F)ccc1-2 [Compound 107]
α5β3γ2 GABAA receptors
  Ki: < 99 nM

## CCOC(=O)c1ncn2c1Cc1c(Cc3ccc(C)cc3)nnn1-c1cc(F)ccc1-2 [Compound 44]
α5β3γ2 GABAA receptors
  Ki: < 99 nM

## CCOC(=O)c1ncn2c1Cc1c(Cc3ccccc3)nnn1-c1cc(OC)ccc1-2 [Compound 4]
α5β3γ2 GABAA receptors
  Ki: < 99 nM

## CCOC(=O)c1ncn2c1Cc1c(Cc3ccccc3)cnn1-c1cc(OC)ccc1-2 [Compound 8]
α5β3γ2 GABAA receptors
  Ki: < 99 nM

## CCOC(=O)c1ncn2c1Cc1c(Cc3ccccc3Cl)nnn1-c1cc(OC)ccc1-2 [Compound 108]
α5β3γ2 GABAA receptors
  Ki: < 99 nM

Reference: patent publication US11142529B2 (priority 2013, dated 2021)
